This passage reports DC50 and Dmax results from patent US20260092061A1, “COMPOUNDS FOR TARGETED PROTEIN DEGRADATION” (Amphista Therapeutics Limited, priority 2022, published 2026).

The target in test [1] is T1, BRD9 (Homo sapiens, UniProt Q9H8M2).
T1 sequence (Q9H8M2 1-597): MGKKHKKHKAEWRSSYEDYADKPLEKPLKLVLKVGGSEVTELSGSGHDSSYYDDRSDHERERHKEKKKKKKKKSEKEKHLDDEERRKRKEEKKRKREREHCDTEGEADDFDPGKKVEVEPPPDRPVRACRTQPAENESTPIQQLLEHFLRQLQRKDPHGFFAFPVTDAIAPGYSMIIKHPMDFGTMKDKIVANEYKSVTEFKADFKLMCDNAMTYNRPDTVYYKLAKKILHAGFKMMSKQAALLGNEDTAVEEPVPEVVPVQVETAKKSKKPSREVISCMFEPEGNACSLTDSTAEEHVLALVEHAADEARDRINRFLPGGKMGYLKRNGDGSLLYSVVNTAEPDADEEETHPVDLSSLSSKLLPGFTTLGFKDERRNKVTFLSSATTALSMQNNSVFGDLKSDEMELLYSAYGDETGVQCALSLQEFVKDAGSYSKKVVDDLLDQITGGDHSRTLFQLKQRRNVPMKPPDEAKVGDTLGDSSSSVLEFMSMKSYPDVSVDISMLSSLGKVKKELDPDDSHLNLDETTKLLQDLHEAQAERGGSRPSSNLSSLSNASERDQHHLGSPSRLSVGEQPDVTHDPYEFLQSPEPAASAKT
The test can be described thus: BRD9 degradation, HiBiT-BRD9 KI HEK293 (LgBiT) cells, NanoGlo Lytic Endpoint assay (Assay Protocol 1). Type of test: cell-based. To be noted: BRD9 degradation; for Dmax / Dmax at 1 µM: HEK293; for Dmax: read-out: Dmax; for Dmax at 1 µM: 1 μM compound at 6 h of treatment, read-out: Assay 1 Dmax. As to the method: HiBiT-BRD9 KI HEK293 (LgBiT) Cells (Promega CS3023412) were seeded at 8000 cells per well (38 μL) in sterile white bottom 384 well plates (Invitrogen 164610 or Greiner 781080) and incubated overnight at 37° C. with 5% CO2. The next day, compounds were prepared at 1000× final concentration in DMSO and diluted 1:100 in media (DMEM PAN Biotech P04-03550+10% FBS ATCC 302025). 4 μL compound was added to each well of the cell plate and incubated for 6 h at 37° C. with 5% CO2 BRD9 expression was quantified using the NanoGlo Lytic Endpoint assay (Promega N3050). The lytic buffer was equilibrated to room temperature for 10-15 min before lytic reagent was prepared by adding substrate (1:50) and LgBit protein (1:100) in lytic buffer. 40 μL lytic reagent mix was added to each well of the cel plate and plates were centrifuged briefly at ˜50g. Plates were incubated with shaking (350 RPM) for 12-24 min before reading using the LUM plus module of a BMG Pherastar FSX. Data was analysed using Dotmatics software and % BRD9 remaining was calculated by normalisation to average data from high and low control wells (DMSO treated cels and no cells respectively).

In test [2] the target is T1, BRD9. The test can be described thus: Degradation of BRD9 (IF), immunofluorescence in MV4-11 cells, 24 hours (Assay Protocol 2). Details: A suspension of MV4-11 cells (ATCC CRL-9591) was prepared; host or cells: MV4-11. Type of test: cell-based. To be noted: BRD9 degradation; for Dmax: MV4-11, Assay protocol 2, read-out: Dmax. The essentials: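 % BRD9 remaining, scaled between DMSO (high) and 100 nM CFT-8634 (low) control wells, derives from mean Alexa 647 contrast in central nuclei by high-content imaging. MV4-11 cells had 24 h compound exposure at 37° C. before PFA fixation, Triton permeabilisation and anti-BRD9 E4Q3F immunostaining.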

The mark [3] stands for this setting: Assay protocol 1, read-out: DC50.
[4] abbreviates: Table 2, Assay Protocol 1, 6 h of treatment, read-out: Assay 1 DC50.

Where only a bound is given, the exact number is not on record here.

As for `COc1cc(-c2cn(C)c(=O)c(C)c2C)cc(OC)c1CN1CCN(Cc2cccc3c2CCN(C(=O)/C(C#N)=C/c2cc(C)ccn2)C3C)CC1` (mixture of isomers) [Compound B19, (E/Z)-2-(5-((4-(2,6-dimethoxy-4-(1,4,5-trimethyl-6-oxo-1,6-dihydropyridin-3-yl)benzyl)piperazin-1-yl)methyl)-1-methyl-1,2,3,4-tetrahydroisoquinoline-2-carbonyl)-3-(4-methylpyridin-2-yl)acrylonitrile], the DC50 on BRD9 [1] (setting [3]) was in the range of 1.25 to 10 nM. In addition, the Dmax on BRD9 [1] (Assay protocol 1) and on BRD9 [2] was 40 to 70% throughout.

Turning to `COc1cc(-c2cn(C)c(=O)c(C)c2C)cc(OC)c1CN1CCN(C(=O)c2cccc(C3CCCN3C(=O)/C(C#N)=C/C(C)(C)C)c2)CC1` (mixture of isomers) [Compound B35, (E/Z)-2-(2-(3-(4-(2,6-dimethoxy-4-(1,4,5-trimethyl-6-oxo-1,6-dihydropyridin-3-yl)benzyl)piperazine-1-carbonyl)phenyl)pyrrolidine-1-carbonyl)-4,4-dimethylpent-2-enenitrile], the 50% degradation concentration (DC50) on BRD9 [1] (setting [3]) was in the range of 25 to 1000 nM; at BRD9 [2] (Assay protocol 2, read-out: DC50) it was 10 to 25 nM. Besides, the Dmax at BRD9 [1] (Assay protocol 1) and on BRD9 [2] was over 75% throughout.

Regarding `COc1cc(-c2cn(C)c(=O)c(C)c2C)cc(OC)c1CN1CCN(Cc2cccc(C3CCCN3C(=O)/C(C#N)=C/c3cccc(Br)n3)c2)CC1` (mixture of isomers) [Compound A63, (E/Z)-3-(6-bromopyridin-2-yl)-2-(2-(3-((4-(2,6-dimethoxy-4-(1,4,5-trimethyl-6-oxo-1,6-dihydropyridin-3-yl)benzyl)piperazin-1-yl)methyl)phenyl)pyrrolidine-1-carbonyl) acrylonitrile], the Dmax at 1 µM on BRD9 [1] (Table 2, Assay Protocol 1) is over 75%. In addition, the DC50 on BRD9 [1] (setting [4]) lay within 1.25 to 10 nM.

As to `COc1cc(-c2cn(C)c(=O)c3cnccc23)cc(OC)c1CN1CCN(Cc2cccc3c2CCN(C(=O)/C(C#N)=C\c2ccon2)C3C)CC1` (mixture of isomers) [Compound A11, (E/Z)-2-(5-((4-(2,6-dimethoxy-4-(2-methyl-1-oxo-1,2-dihydro-2,7-naphthyridin-4-yl)benzyl)piperazin-1-yl)methyl)-1-methyl-1,2,3,4-tetrahydroisoquinoline-2-carbonyl)-3-(isoxazol-3-yl)acrylonitrile], on BRD9 [1] (Table 2, Assay Protocol 1), the Dmax at 1 µM was 40 to 70%. The DC50 on BRD9 [1] (setting [4]) lay in the range of 1.25 to 10 nM.

`COc1cc(-c2cn(C)c(=O)c3cnccc23)cc(OC)c1CN1CCN(Cc2cccc3c2CCN(C(=O)/C(C#N)=C\c2nc(C)c(C)s2)C3C)CC1` (mixture of isomers) [Compound A13, (E/Z)-2-(5-((4-(2,6-dimethoxy-4-(2-methyl-1-oxo-1,2-dihydro-2,7-naphthyridin-4-yl)benzyl)piperazin-1-yl)methyl)-1-methyl-1,2,3,4-tetrahydroisoquinoline-2-carbonyl)-3-(4,5-dimethylthiazol-2-yl)acrylonitrile]: on BRD9 [1] (Table 2, Assay Protocol 1), the Dmax at 1 µM was in the range of 40 to 70%. At BRD9 [1] (setting [4]), the DC50 lay within 1.25 to 10 nM.

In the case of `COc1cc(-c2cn(C)c(=O)c3cnccc23)cc(OC)c1CN(C)Cc1ccc2c(c1)C(C)N(C(=O)/C(C#N)=C/C(C)(C)C)CC2` (mixture of isomers) [Compound A47, (E/Z)-2-[7-[[2,6-dimethoxy-4-(2-methyl-1-oxo-2,7-naphthyridin-4-yl)phenylmethyl-methyl-amino]methyl]-1-methyl-3,4-dihydro-1H-isoquinoline-2-carbonyl]-4,4-dimethyl-pent-2-enenitrile], the Dmax at 1 µM on BRD9 [1] (Table 2, Assay Protocol 1) was 40 to 70%. Further, on BRD9 [1] (setting [4]), the DC50 lay in the range of 10 to 25 nM.

Turning to `COc1cc(-c2cn(C)c(=O)c3cnccc23)cc(OC)c1CN1CC2CC1CN2Cc1cccc2c1CCN(C(=O)/C(C#N)=C/C(C)(C)C)C2C` (single isomer, unassigned) [Compound A39, (E/Z)-2-(5-((5-(2,6-dimethoxy-4-(2-methyl-1-oxo-1,2-dihydro-2,7-naphthyridin-4-yl)benzyl)-2,5-diazabicyclo[2.2.1]heptan-2-yl)methyl)-1-methyl-1,2,3,4-tetrahydroisoquinoline-2-carbonyl)-4,4-dimethylpent-2-enenitrile], the Dmax at 1 µM at BRD9 [1] (Table 2, Assay Protocol 1) lay within 40 to 70%. At BRD9 [1] (setting [4]), the 50% degradation concentration (DC50) is 1.25 to 10 nM.

`COc1cc(-c2cn(C)c(=O)c(C)c2C)cc(OC)c1CN1CCN(Cc2cccc3c2CCN(C(=O)/C(C#N)=C\c2nc(C)cs2)C3C)CC1` (mixture of isomers) [Compound A21]: the Dmax at 1 µM on BRD9 [1] (Table 2, Assay Protocol 1) fell in the range of 70 to 75%. The DC50 on BRD9 [1] (setting [4]) was under 1.25 nM.

Regarding `COc1cc(-c2cn(C)c(=O)c(C)c2C)cc(OC)c1CN1CCN(Cc2cccc3c2CCN(C(=O)/C(C#N)=C/c2nc4ccccc4s2)C3C)CC1` (mixture of isomers) [Compound A20], at BRD9 [1] (Table 2, Assay Protocol 1), the Dmax at 1 µM was over 75%. The DC50 on BRD9 [1] (setting [4]) was 1.25 to 10 nM.

Turning to `CCCC(c1ccc(CCC(=O)N2CCN(Cc3c(OC)cc(-c4cn(C)c(=O)c(C)c4C)cc3OC)CC2)cc1)N(C)C(=O)/C(C#N)=C/c1nccs1` (mixture of isomers) [Compound A58, (E/Z)-2-cyano-N-(1-(4-(3-(4-(2,6-dimethoxy-4-(1,4,5-trimethyl-6-oxo-1,6-dihydropyridin-3-yl)benzyl)piperazin-1-yl)-3-oxopropyl)phenyl)butyl)-N-methyl-3-(thiazol-2-yl)acrylamide], the maximal degradation (Dmax) at 1 µM at BRD9 [1] (Table 2, Assay Protocol 1) lay within 40 to 70%. The DC50 at BRD9 [1] (setting [4]) fell in the range of 1.25 to 10 nM.

Take `COc1cc(-c2cn(C)c(=O)c3cnccc23)cc(OC)c1CN1CCN(Cc2cccc(C3CCCN3C(=O)/C(C#N)=C/c3nccs3)c2)CC1` (mixture of isomers) [Compound A33, (E/Z)-2-(2-(3-((4-(2,6-dimethoxy-4-(2-methyl-1-oxo-1,2-dihydro-2,7-naphthyridin-4-yl)benzyl)piperazin-1-yl)methyl)phenyl)pyrrolidine-1-carbonyl)-3(thiazol-2-yl)acrylonitrile]: at BRD9 [1] (Table 2, Assay Protocol 1), the Dmax at 1 µM is over 75%. The DC50 at BRD9 [1] (setting [4]) is under 1.25 nM.

For `COc1cc(-c2cn(C)c(=O)c(C)c2C)cc(OC)c1CN1CCN(Cc2cccc3c2CCN(C(=O)/C(C#N)=C/c2ccc(C(F)(F)F)cn2)C3C)CC1` (mixture of isomers) [Compound A54, (E/Z)-2-(5-((4-(2,6-dimethoxy-4-(1,4,5-trimethyl-6-oxo-1,6-dihydropyridin-3-yl)benzyl)piperazin-1-yl)methyl)-1-methyl-1,2,3,4-tetrahydroisoquinoline-2-carbonyl)-3-(5-(trifluoromethyl)pyridin-2-yl)acrylonitrile], the Dmax at 1 µM on BRD9 [1] (Table 2, Assay Protocol 1) was 40 to 70%. Further, on BRD9 [1] (setting [4]), the DC50 was 1.25 to 10 nM.

As to `COc1cc(-c2cc(C)c(=O)n(C)c2)cc(OC)c1CN1CCN(Cc2cccc3c2CCN(C(=O)/C(C#N)=C/C(C)C)C3C)CC1` (mixture of isomers) [Compound A52, (E/Z)-2-(5-((4-(4-(1,5-dimethyl-6-oxo-1,6-dihydropyridin-3-yl)-2,6-dimethoxybenzyl)piperazin-1-yl)methyl)-1-methyl-1,2,3,4-tetrahydroisoquinoline-2-carbonyl)-4-methylpent-2-enenitrile], on BRD9 [1] (Table 2, Assay Protocol 1), the Dmax at 1 µM is over 75%. Moreover, the DC50 on BRD9 [1] (setting [4]) lay in the range of 1.25 to 10 nM.

For the compound `COc1cc(-c2cn(C)c(=O)c(C)c2C)cc(OC)c1CN1CC2CCC(C1)N2Cc1cccc2c1CCN(C(=O)/C(C#N)=C/c1cccc(Br)n1)C2C` (mixture of isomers) [Compound B8, (E/Z)-3-(6-bromopyridin-2-yl)-2-(5-((3-(2,6-dimethoxy-4-(1,4,5-trimethyl-6-oxo-1,6-dihydropyridin-3-yl)benzyl)-3,8-diazabicyclo[3.2.1]octan-8-yl)methyl)-1-methyl-1,2,3,4-tetrahydroisoquinoline-2-carbonyl)acrylonitrile], at BRD9 [1] (setting [3]), the 50% degradation concentration (DC50) was 1.25 to 10 nM. The greatest degradation seen (Dmax) on BRD9 [1] (Assay protocol 1) is 40 to 70%.

Usually DC50 stands for the midpoint of the concentration-degradation curve. What is called Dmax is the greatest extent of degradation seen.
